Experimental data from patent US11866430B2, “Naphthyridinone compounds useful as T cell activators” (priority 2018, dated 2024).
Like-named read-outs stand apart in the source and are kept apart here.

Experiments:
[1] = test system: naïve human CD8 T cells; assay: CellTiter-Glo CD8 T Cell Proliferation Assay; format: cell-based; conditions: Homo sapiens, T-cell
Protocol: Frozen naïve human CD8 T cells were thawed in RPMI+10% FBS, incubated for 2 h in 37° C., and counted. The 384-well tissue culture plate was coated overnight at 4° C. with 20 μl anti-human CD3 at 0.1 μg/mL in plain RPMI, which was removed off the plate before 20 k/40 μl CD8 T cells with 0.5 μg/mL soluble anti-human CD28 were added to each well. The compounds were echoed to the cell plate immediately after the cells were plated. After 72 h incubation at 37° C. incubator, 10 μl CellTiter-glo reagent (Promega catalog number G7570) was added to each well. The plate was vigorously shaken for 5 mins, incubated at room temperature for another 15 mins and read on Envision for CD8 T cell proliferation. In analysis, 0.1 μg/mL anti-CD3 and 0.5 μg/mL anti-CD28 stimulated CD8 T cell signal was background.

[2] = target: T1, human DGKα (Homo sapiens (Human), UniProt P23743); assay: biochemical
In short: (§1)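 Enzymes were baculovirus/Sf9 full-length human DGKα or DGKζ with His tag. The substrate was PS/DAG in octyl glucoside micelles, in MOPS pH 7.5 buffer with NaCl, MgCl2, CaCl2 and DTT.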

[3] = target: T2, human DGKζ (Homo sapiens (Human), UniProt Q13574); assay: DGKζ assay (detergent/lipid micelle substrate); format: biochemical; conditions: detergent/lipid micelle substrate; read-out: DGKζ IC50
In short: as §1

[4] = test system: Jurkat AP1-luciferase Reporter; assay: DGK AP1-Reporter Assay; format: cell-based
Protocol: The Jurkat AP1-luciferase Reporter was generated using the Cignal Lenti AP1 Reporter (luc) Kit from SABiosciences (CLS-011L).
The sample size was 30 nl per well; and one destination plate per source plate. The cell suspensions were prepared by transferring 40 mL cells (2×20 mL) to clean 50 mL conical tubes. The cells were concentrated by centrifugation (1200 rpm; 5 mins; ambient temperature). […] The cell plates were incubated for 20 minutes at 37° C., and 5% CO2.
During the incubation, anti-CD3 antibody (αCD3) solutions were prepared by mixing 3 μl αCD3 (1.3 mg/mL) with 10 mL medium [final conc=0.4 μg/mL]. Next, 1.5 μl αCD3 (1.3 mg/mL) was mixed with 0.5 mL medium [final conc=4 μg/mL]. After 20 minutes, 10 μl medium was added to all wells in column 1, wells A to M, and 10 μl αCD3 (4 μg/mL) per well was added in column 1, rows N to P for reference. Then using a multi-channel pipette, 10 μl αCD3 (0.4 μg/mL) per well was added. The αCD3 stimulated +/− compound-treated cells were incubated at 37° C., 5% CO2 for 6 hours.
During this incubation period. Steady-Glo (Promega E2520) reagent was slowly thawed on to ambient temperature. Next, 20 μl Steady-Glo reagent per well was added using a multi-drop Combi-dispenser. Bubbles were removed by centrifugation (2000 rpm, ambient temperature, 10 sees). The cells were incubated at room temperature for 5 minutes. Samples were characterized by measuring the Relative Light Units (RLU) with an using Envision Plate Reader Instrument on a luminescence protocol.

[5] = test system: naïve human CD8 T cells; assay: cells; conditions: Homo sapiens, T-cell, read-out: HuCD8 INFG Normalized EC50, anti-CD3 plus anti-CD28 as baseline; 3 μM Example 40 co-stimulation as 100% activation
Protocol: Frozen naïve human CD8 T cells were thawed in ATM-V media, incubated for 2 h in 37° C., and counted. The 384-well tissue culture plate was coated overnight at 4° C. with 20 μl anti-human CD3 at 0.05 μg/mL in PBS, which was removed off the plate before 40,000 cells per 40 microliters CD8 T cells with 0.1 μg/mL soluble anti-human CD28 were added to each well. The compounds were transferred using an Echo liquid handler to the cell plate immediately after the cells were plated. After 20 h incubation at 37° C. incubator, 3 microliters per well supernatants transferred into a new 384-well white assay plate for cytokine measurement.
Interferon-γ (IFN-γ) was quantitated using the AlphaLISA kit (Cat #AL217) as described by the manufacturer manual (Perkin Elmer). The counts from each well were converted to IFN-γ concentration […].

[6] = target: T2, human DGKζ; assay: DGKζ LIPGLO assay (extruded liposome substrate); format: biochemical; conditions: extruded liposome substrate; read-out: DGKζ LIPGLO IC50
In short: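 Recombinant DGKζ (Sf9-expressed, Ni/SEC/SP-purified) preincubated 10 min with extruded 100 nm PC/DAG/PS liposomes in 50 mM MOPS pH 7.5, 100 mM NaCl, 10 mM MgCl2, 1 μM CaCl2, 1 mM DTT. Started with 300 uM ATP solution (stock, pre-addition); 1 hr reaction. ADP-Glo luminescence; IC50 from 11 concentrations.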

[7] = test system: OT-1 antigen-specific CD8+ T cells with MC38 tumor cells; assay: Murine Cytotoxic T Lymphocyte Assay (IFN-γ); format: cell-based, mouse
From the text: An antigen-specific cytolytic T-cell (CTL) assay was developed to evaluate functionally the ability of DGKα and DGKζ inhibitors to enhance effector T cell mediated tumor cell killing activity. CD8+ T-cells isolated from the OT-1 transgenic mouse recognize antigen presenting cells, MC38, that present the ovalbumin derived peptide […]. Recognition of the cognate antigen initiates the cytolytic activity of the OT-1 antigen-specific CD8+ T cells.
Functional CTL cells were generated as follows: OT-1 splenocytes from 8-12 week old mice were isolated and expanded in the presence of the […] peptide at 1 μg/mL and mIL2 at 10 U/mL. After three days, fresh media with mIL2 U/mL was added. On day 5 of the expansion, the CD8+ T cells were isolated and ready for use. Activated CTL cells may be stored frozen for 6 months. […] The cells were washed (3×) with fresh media to remove excess peptide. Finally, CTL cells that were pretreated with DGK inhibitors for 1 hour in a 96-well U bottom plate were combined with the antigen loaded MC38 tumor cells at a 1:10 ratio. The cells were then spun at 700 rpm for 5 min and placed in an incubator overnight at 37° C. After 24 hours, the supernatant was collected for analysis of IFN-γ cytokine levels by AlphaLisa purchased from Perkin Elmer.

[8] = target: T1, human DGKα; assay: DGKα LIPGLO assay (extruded liposome substrate); format: biochemical
In short: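 Human full-length DGKα, His-tagged and produced in Sf9 cells, assayed at 20 nM (4× stock) on extruded liposomes of PS, 0.25 mM DAG and 2.75 mM PC, preincubated 10 min. Reaction started with 300 μM ATP (stock) and ran 1 h in MOPS pH 7.5/MgCl2/CaCl2/DTT buffer.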

[9] = test system: pre-activated CD4 T cells and Raji cells; assay: Raji CD4 T Cell IL2 Assay; format: cell-based; conditions: Homo sapiens, Raji
[10] = CellTiter-Glo CD8 T cell proliferation, normalized, read-out: CD8 GLO normalized EC50
[11] = detergent/lipid micelle substrate, read-out: DGKα IC50
[12] = Homo sapiens, Jurkat, read-out: DGKAP1 Lucif Reporter IC50, Table 4
[13] = Homo sapiens, Jurkat, read-out: API-Luciferase Reporter IC50, Table 3
[14] = DGKα IC50, detergent/lipid micelle substrate
[15] = Mus musculus, MC-38, read-out: msCTL INF-γ IC50, murine CTL IFN-γ (table title reads INF-γ Whole Blood Normalized Agonist EC50)
[16] = read-out: msCTL INF-γ IC50, murine CTL IFN-γ (table title reads INF-γ Whole Blood Normalized Agonist EC50)
[17] = read-out: API-Luciferase Reporter IC50, Table 3

T2 sequence (Q13574 other isoform, or with tags, fused parts or gaps): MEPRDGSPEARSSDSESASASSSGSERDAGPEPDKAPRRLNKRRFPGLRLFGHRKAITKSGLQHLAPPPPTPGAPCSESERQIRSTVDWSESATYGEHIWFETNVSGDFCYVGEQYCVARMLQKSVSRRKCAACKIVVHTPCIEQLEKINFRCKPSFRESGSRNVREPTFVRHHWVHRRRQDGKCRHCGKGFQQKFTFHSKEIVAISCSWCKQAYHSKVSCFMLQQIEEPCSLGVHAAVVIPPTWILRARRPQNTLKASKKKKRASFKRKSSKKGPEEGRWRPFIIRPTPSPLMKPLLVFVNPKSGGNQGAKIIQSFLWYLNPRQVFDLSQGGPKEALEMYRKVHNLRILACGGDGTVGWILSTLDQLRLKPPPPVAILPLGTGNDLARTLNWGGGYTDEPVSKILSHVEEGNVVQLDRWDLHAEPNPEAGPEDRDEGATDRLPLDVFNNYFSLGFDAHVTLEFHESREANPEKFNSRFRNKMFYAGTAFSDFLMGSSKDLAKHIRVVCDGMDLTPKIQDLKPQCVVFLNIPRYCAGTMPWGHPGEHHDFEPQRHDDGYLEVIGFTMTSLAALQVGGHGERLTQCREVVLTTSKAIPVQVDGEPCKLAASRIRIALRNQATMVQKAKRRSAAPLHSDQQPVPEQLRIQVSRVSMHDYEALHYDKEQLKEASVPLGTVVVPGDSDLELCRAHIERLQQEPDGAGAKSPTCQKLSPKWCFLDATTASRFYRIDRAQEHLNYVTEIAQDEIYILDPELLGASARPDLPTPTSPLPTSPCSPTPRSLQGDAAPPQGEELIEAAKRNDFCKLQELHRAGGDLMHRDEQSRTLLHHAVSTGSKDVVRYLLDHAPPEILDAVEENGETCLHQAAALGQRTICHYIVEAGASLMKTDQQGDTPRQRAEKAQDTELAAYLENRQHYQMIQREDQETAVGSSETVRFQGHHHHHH
T1 sequence (P23743 other isoform, or with tags, fused parts or gaps): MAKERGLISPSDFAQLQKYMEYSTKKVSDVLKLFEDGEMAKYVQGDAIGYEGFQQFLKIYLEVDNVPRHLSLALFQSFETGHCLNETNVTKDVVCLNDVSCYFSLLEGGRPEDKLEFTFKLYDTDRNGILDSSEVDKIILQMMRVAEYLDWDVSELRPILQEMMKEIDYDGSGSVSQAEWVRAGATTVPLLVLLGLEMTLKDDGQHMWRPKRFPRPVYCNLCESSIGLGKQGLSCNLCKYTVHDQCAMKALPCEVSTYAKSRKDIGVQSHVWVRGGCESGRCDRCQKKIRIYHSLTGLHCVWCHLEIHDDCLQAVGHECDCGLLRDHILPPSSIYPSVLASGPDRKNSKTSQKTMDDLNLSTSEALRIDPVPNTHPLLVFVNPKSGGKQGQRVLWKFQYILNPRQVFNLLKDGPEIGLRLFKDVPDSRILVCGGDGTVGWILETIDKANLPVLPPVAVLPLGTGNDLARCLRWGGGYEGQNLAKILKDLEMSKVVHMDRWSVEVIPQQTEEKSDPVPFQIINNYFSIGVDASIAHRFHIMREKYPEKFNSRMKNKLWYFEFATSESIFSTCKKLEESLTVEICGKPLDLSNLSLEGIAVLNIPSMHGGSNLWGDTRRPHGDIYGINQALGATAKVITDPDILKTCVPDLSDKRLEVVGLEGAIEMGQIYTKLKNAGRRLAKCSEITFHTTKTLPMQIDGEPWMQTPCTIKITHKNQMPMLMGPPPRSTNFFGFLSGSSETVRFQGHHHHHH

`C#CCn1c(=O)c([N+](=O)[O-])c(N2CCN(C(c3ccc(F)cc3)c3ccccc3OC)CC2)c2nc(C#N)ccc21` (racemic) [Example 129, 8-(4-((4-fluorophenyl)(2-methoxyphenyl)methyl)piperazin-1-yl)-7-nitro-6-oxo-5-(prop-2-yn-1-yl)-5,6-dihydro-1,5-naphthyridine-2-carbonitrile] gave an EC50 [1, 10] of 60 nM, an IC50 [2, 11] of 4200 nM and an IC50 [3] of 180 nM. For the same molecule, the IC50 [4, 12] was 870 nM.

`CCC(c1ccc(F)cc1)N1CCN(c2c([N+](=O)[O-])c(=O)n(C)c3ccc(C#N)nc23)CC1` (racemic) [Example 32, 8-{4-[1-(4-fluorophenyl)propyl]piperazin-1-yl}-5-methyl-7-nitro-6-oxo-5,6-dihydro-1,5-naphthyridine-2-carbonitrile] was tested, and the EC50 ([1]; read-out: CD8 GLO normalized EC50, CellTiter-Glo CD8 T cell proliferation, normalized) was 180 nM, the IC50 [2, 11] was 190 nM and the IC50 [3] was 9400 nM. For the same molecule, the IC50 [4, 13] was 360 nM.

Molecule `Cn1c(=O)c([N+](=O)[O-])c(N2CCN(C(c3ccc(F)cc3)C3CC3)CC2)c2nc(C#N)ccc21` (racemic) [Example 49, 8-(4-(cyclopropyl(4-fluorophenyl)methyl)piperazin-1-yl)-5-methyl-7-nitro-6-oxo-5,6-dihydro-1,5-naphthyridine-2-carbonitrile] has an EC50 [1, 10] of 170 nM, an IC50 [2, 14] of 180 nM and an IC50 [3] greater than 240000 nM. The IC50 [4, 12] was 1700 nM.

`COc1cc(F)ccc1C(c1ccc(F)cc1)N1CCN(c2cc(=O)n(C)c3ccc(C#N)nc23)CC1` (stereo not shown) [Example 392, 8-{4-[(4-fluoro-2-methoxyphenyl)(4-fluorophenyl)methyl]piperazin-1-yl}-5-methyl-6-oxo-5,6-dihydro-1,5-naphthyridine-2-carbonitrile] showed an EC50 [5] of 230 nM, an IC50 [6] of 2300 nM and an IC50 [7, 15] of 1850 nM. It also gave an IC50 [8] greater than 240000 nM.

Work on `C#CCn1c(=O)c([N+](=O)[O-])c(N2CCN(C(c3ccc(F)cc3)c3ccccc3O)CC2)c2nc(C#N)ccc21` (single isomer, unassigned) [Example 133, 8-(4-((4-fluorophenyl)(2-hydroxyphenyl)methyl)piperazin-1-yl)-7-nitro-6-oxo-5-(prop-2-yn-1-yl)-5,6-dihydro-1,5-naphthyridine-2-carbonitrile] yielded an IC50 [2, 14] of 3300 nM, an IC50 [7, 16] of 60 nM and an IC50 [3] of 140 nM. The IC50 [4, 17] was 280 nM.

Molecule `Cn1c(=O)c([N+](=O)[O-])c(N2CCN([C@@H](c3ccccc3)c3ccc(Cl)cc3)CC2)c2nc(C#N)ccc21` [Example 399, 8-{4-[(S)-(4-chlorophenyl)(phenyl)methyl]piperazin-1-yl}-5-methyl-7-nitro-6-oxo-5,6-dihydro-1,5-naphthyridine-2-carbonitrile] has an EC50 [5] of 20 nM, an IC50 [6] of 160 nM and an IC50 [7, 15] of 410 nM. For the same molecule, the IC50 [8] was 6400 nM.

`C#CCn1c(=O)c([N+](=O)[O-])c(N2CCN(C(c3ccc(F)cc3)c3ccccc3O)CC2)c2nc(C#N)ccc21` (single isomer, unassigned) [Example 134, 8-(4-((4-fluorophenyl)(2-hydroxyphenyl)methyl)piperazin-1-yl)-7-nitro-6-oxo-5-(prop-2-yn-1-yl)-5,6-dihydro-1,5-naphthyridine-2-carbonitrile] showed an IC50 [2, 11] of 31000 nM, an IC50 [7, 16] of 1140 nM and an IC50 [3] of 4200 nM. The IC50 [4, 17] was 600 nM.

`CC(c1ccc(F)cc1)N1CCN(c2c(C#N)c(=O)n(C)c3ccc(Cl)nc23)CC1` (stereo not shown) [Example 387A, 6-chloro-4-{4-[1-(4-fluorophenyl)ethyl]piperazin-1-yl}-1-methyl-2-oxo-1,2-dihydro-1,5-naphthyridine-3-carbonitrile] was tested, and the EC50 [1, 10] was 10000 nM and the IC50 [4, 12] was 10000 nM.

`Cn1c(=O)c(C#N)c(N2CCN([C@@H](c3ccccc3)c3ccc(Cl)cc3)CC2)c2nc(Br)ccc21` [Example 428, 6-bromo-4-{4-[(S)-(4-chlorophenyl)(phenyl)methyl]piperazin-1-yl}-1-methyl-2-oxo-1,2-dihydro-1,5-naphthyridine-3-carbonitrile] gave an EC50 [5] of 30 nM, an IC50 [6] of 5200 nM and an IC50 [7, 15] of 590 nM. For the same molecule, the IC50 [8] was 10000 nM.

For `Cn1c(=O)c(C#N)c(N2CCN(Cc3ccc(O)cc3)CC2)c2nc(Cl)ccc21` [Example 362, 6-chloro-4-{4-[(4-hydroxyphenyl)methyl]piperazin-1-yl}-1-methyl-2-oxo-1,2-dihydro-1,5-naphthyridine-3-carbonitrile], the IC50 [2, 11] was 69 nM, the IC50 [9] was greater than 100000 nM and the IC50 [7, 15] was 10000 nM. For the same molecule, the IC50 [3] was greater than 240000 nM and the IC50 [4, 13] was 8370 nM.

`COc1cc(F)ccc1C(c1ccc(F)cc1)N1CCN(c2c(C#N)c(=O)n(C)c3ccc(C#N)nc23)CC1` (racemic) [Example 405, 8-{4-[(4-fluoro-2-methoxyphenyl)(4-fluorophenyl)methyl]piperazin-1-yl}-5-methy-6-oxo-5,6-dihydro-L5-naphthyridine-2,7-dicarbonitrile] was tested, and the EC50 [1, 10] was 20 nM, the IC50 [6] was 860 nM and the IC50 [8] was 560 nM.

For `Cc1cccc(CN2CCN(c3c(C#N)c(=O)n(C)c4ccc(Cl)nc34)CC2)c1` [Example 385, 6-chloro-1-methyl-1-{4-4[(3-methylphenyl)methyl]piperazin-1-yl}-2-oxo-1,2-dihydro-1,5-naphthyridine-3-carbonitrile], the IC50 [2, 11] was 350 nM, the IC50 [7, 15] was 4090 nM and the IC50 [3] was 150000 nM. It also gave an IC50 [4, 13] of 60 nM.
